Molecular target: D-xylose isomerase (Streptomyces pseudogriseolus, UniProt P24300)
Assay: competitive inhibition of D-xylose isomerization
Format: biochemical

Sequence of D-xylose isomerase (P24300 2-388): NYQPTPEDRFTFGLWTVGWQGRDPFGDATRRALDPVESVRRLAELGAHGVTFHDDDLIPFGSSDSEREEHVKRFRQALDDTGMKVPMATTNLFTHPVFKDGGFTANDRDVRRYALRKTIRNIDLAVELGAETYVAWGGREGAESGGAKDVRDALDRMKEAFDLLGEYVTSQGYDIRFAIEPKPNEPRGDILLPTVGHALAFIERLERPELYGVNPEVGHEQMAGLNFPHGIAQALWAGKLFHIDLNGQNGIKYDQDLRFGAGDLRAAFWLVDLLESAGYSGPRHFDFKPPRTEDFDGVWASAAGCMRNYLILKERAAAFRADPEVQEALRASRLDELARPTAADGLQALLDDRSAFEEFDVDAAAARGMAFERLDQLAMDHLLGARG

SMILES: O=C[C@H](O)CO [DGA, D-glyceraldehyde]
- Ki: 3 mM

From article PMC3217161 (2011)
